Reference: patent US20090215895A1, “Therapeutic and carrier molecules” (PEPLIN BIOLIPIDS PTY LTD, priority 2004, published 2009)
“Also recorded” adds a separate entry of the source. Blank lines part the entries; values can stand above or below the compound they belong to.

How the values were obtained:
[1] = Formalin-induced pain test (hind paw licking time); format: in vivo; conditions: for % inhibition of pain response, Phase I (0-5 mins) / % inhibition of pain response, Phase II (15-20 mins): 30 min prior to formalin, mean of 5 animals
Method: (§1) Investigations of the effects of PT2 on pain induced by phenylquinolic acid (PQ writhing) and formalin have been made. In both the PQ writhing test (FIG. 3) and the formalin algesia test (FIG. 4), PT2 administered by intraperitoneal inoculation reduced pain and compared favourably with pain reduction by aspirin (oral, 100 mg/kg). In these tests, the EPUFA was administered 30 min before the pain stimulus and effects recorded over the following 20 min.
Investigations of PT2 in the formalin-induced analgesia model looking specifically at the biphasic response have also been undertaken and are shown in Table 1. It is well documented that in this model, aspirin suppresses only pain related to the inflammatory process (15-20 mins post-administration of formalin), while morphine suppresses pain in both phases of the response (0-5 min and 15-20 min).
Compounds were administered intraperationedly (ip) 30 min prior to the administration of formalin (0.02 ml, 1% solution) via subplantar injection into the right hind paw. Reduction of the induced hind paw licking time recorded during the following 0-5 min period (Phase I response) or 15-20 min period (Phase II response) was determined. The data in Table 1 are the mean responses of 5 animals in each group.

[2] = PQ (phenylquinolic acid) writhing test; format: in vivo; conditions: intraperitoneal, 30 min before pain stimulus
Method: as §1

neutrophil NADPH oxidase = assay: Neutrophil respiratory burst (NADPH oxidase activation, chemiluminescence); format: cell-based, human; conditions: 20 μM, 10 min, lucigenin-dependent chemiluminescence
Method: The structure of PT2 is shown in (c) above. In this screening assay, neutrophils were prepared from the blood of healthy volunteers. Freshly collected blood was layered onto a Hypaque-Ficoll medium of density 1.114 and centrifuged at 400 g for 30 mins at room temperature. After centrifugation, the leukocytes resolved into two distinct bands, with neutrophils being present in the second band (Ferrante and Thong, J. Immun. Methods 48:81-85, 1982).
Activation of the neutrophil NADPH oxidase was measured by lucigenin-dependent chemiluminescence following a 10 min incubation of PT2 (20 μM, final concentration) with 1×10^6 neutrophils from different donors (Power et al, J. Immunol. 159:2952-2959, 1997). Arachidonic acid (20:4, n-6) was used as a positive stimulator of the oxidase
Neutrophil respiratory burst was determined as previously described (Li et al, J. Clin. Invest. 97:1605-1609, 1996).

[3] = In vitro assays (not specified)
HUVEC = assay: Agonist-enhanced neutrophil adherence to HUVEC; format: cell-based, human; conditions: 20 μmol/l, 1 hr pre-treatment, TNF 4 hr
Method: FIG. 11 is a representation showing effect of β-oxa; β-thia and natural PUFA on TNF-enhanced neutrophil adherence to HUVEC. HUVEC were pre-treated with the fatty acids (20 μmol/l) for 60 min at 37° C. before being stimulated with TNF (125 U/200 μl medium) for 4 hr at 37° C. The cells were then co-incubated with neutrophils (5×10^5 cells/well) at 37° C. for 30 min and the degree of neutrophil adherence quantitated. The results are expressed as % of control and represent the mean±SEM of three separate experiments each performed in triplicate. * p<0.05, ***p<0.001, for significant differences between pre-treatment with fatty acid and control (one-way analysis of variance followed by the Dunnett test for multiple comparisons).
Adhesion of neutrophils, prepared by the rapid-single-step method (Ferrante et al, J. Immun. Methods 36:109-117, 1980), to HUVEC isolated from umbilical cords was carried out essentially as described (Huang et al, 1997 supra).
The magnitude of the suppressive effect of -MP3 was dependent on-pre-treatment time and concentration with significant effects observed with a pre-treatment time of 1 hr and a concentration of ≧5 μmol/l.

IκBα = assay: TNF-induced degradation of IκBα in HUVEC (Western blot); format: cell-based; conditions: Homo sapiens, 20 μmol/l, 30 min pre-treatment, TNF 10 min
Method: FIG. 17 is a representation showing (A) the effect of MP3 (β-oxa 23:4n-6) and DHA on TNF-induced degradation of IκBα in HUVEC. Cells were pre-treated with the fatty acids (20 μmol/l) for 30 min and then stimulated with TNF (125 U/ml) for 10 min. After cell lysis the proteins were analyzed by Western blots using anti-IκBα antibodies. (B) The effects of β-oxa-23:4n-6 on TNF-induced activation of transcriptional factor, NFκB in HUVEC. Cells were pre-treated with β-oxa-23:4n-6 (20 μmol/l) for 30 min and then stimulated with TNF for 2 hr. After cell lysis, nuclear fractions were prepared, nuclear proteins separated by SDS PAGE (12% w/v gel), transferred to nitrocellulose and probed with an anti-NFκB p65 antibody (Santa Cruz). […] (C) The effect of β-oxa 23:4n-6 on TNF-stimulated activation of IKK. Cells were pre-treated with β-oxa 23:4n-6 (20 μmol/l) for 30 min and then stimulated with TNF for 5 min. After cell lysis IKK was immunoprecipitated with anti-IKKα antibody and kinase activity determined. […]
Proteins (50 μg) were separated by SDS PAGE (12% w/v gel), transferred to nitrocellulose and probed with an anti-NFκB p65 or anti-IκBα antibody (Santa Cruz Biotech, Santa Cruz, Calif.). Immunocomplexes were detected by enhanced chemiluminescence (Hii et al, 1998 supra).

PKC isozyme α = target: T1, PKC isozyme α (Homo sapiens, UniProt P17252); assay: PMA-induced PKC translocation in HL-60 cells (Western blot); format: cell-based; design: key: +++: strong inhibition of PKC activation; −: no inhibition of PKC activation; conditions: 20 μM, 60 min
T1 construct: endogenous in cells; host or cells: HL-60
Method: (§2) The effects of nitroanalogs of PUFAs on PKC activation were determined. Lx compounds at a concentration of 20 μM were incubated with the HL-60 cell line (final condition 10^6 cells/ml) for 60 min. PKC activation was then attempted to be induced by PMA. PKC enzyme translocation was quantitated by Western blot.

PKC isozyme β2 = target: T2, PKC isozyme β2 (Homo sapiens, UniProt P05771); assay: as above; format: cell-based; design: key: +++: strong inhibition of PKC activation; −: no inhibition of PKC activation; conditions: 20 μM, 60 min
T2 construct: endogenous in cells; host or cells: HL-60
Method: as §2

cancer cells = assay: Killing of cancer cells; format: cell-based
E-selectin = assay: Adhesion molecule expression on HUVEC (ELISA, mRNA slot blot); format: cell-based, human; conditions: 20 μmol/l, 60 min pre-treatment
Method: (§3) FIG. 13 is a representation showing effect of MP3 (β-oxa-23:4n-6) and 20:4n-6 on time-related changes in TNF-α-induced E-selectin, ICAM-1 and VCAM-1 expression on HUVEC. HUVEC were pre-treated with 20 μmol/l β-oxa-23:4n-6 (closed triangles), 20 μmol/l 20:4n-6 (open squares), or DPC (control) for 60 min and then further incubated with TNF-α (125 U/200 μl medium) for up to 24 hr. The expression of E-selectin, ICAM-1 and VCAM-1 adhesion molecules was determined by ELISA. The results are expressed as % of control and represent the mean±SEM of three separate experiments each performed in triplicate. * p<0.05, **p<0.01, ***p<0.001, for significant differences between pre-treatment with fatty acid and corresponding control at a particular time point (one-way analysis of variance followed by the Dunnett test for multiple comparisons). Inset: The effect of β-oxa-23:4n-6 on TNF-α-induced expression of E-selectin mRNA in HUVEC. HUVEC were pre-incubated with β-oxa-23:4n-6 (20 μmol/l) or DPC (control) in 1 ml of medium at 37° C. for 60 min. After the addition of TNF-α, the cells were further incubated at 37° C. for 2 hr. E-selectin mRNA expression was then determined and the results expressed as relative %. Results are the mean±SEM of three separate experiments each performed in quadruplicate. *p<0.0001, for significant differences between pre-treatment with β-oxa-23:4n-6, and control (two-tailed Student's t-test for unpaired data).
(§4) HUVEC were stimulated with TNF, bacterial lipopolysaccharide (LPS) or PMA for 24 hr. Expression of E-selectin, ICAM-1 and VCAM-1 was determined by an enzyme-linked immunosorbent assay (ELISA) or as mRNA using a slot blot technique (Huang et al 1997 supra).

ICAM-1 = assay: Adhesion molecule expression on HUVEC (ELISA); format: cell-based, human; conditions: 20 μmol/l, 60 min pre-treatment
Method: as §3, §4

VCAM-1 = assay: Adhesion molecule expression on HUVEC (ELISA); format: cell-based, human; conditions: 20 μmol/l, 60 min pre-treatment
Method: as §3, §4

PKC isozyme δ = target: T3, PKC isozyme δ (Homo sapiens, UniProt Q05655); assay: PMA-induced PKC translocation in HL-60 cells (Western blot); format: cell-based; design: key: +++: strong inhibition of PKC activation; −: no inhibition of PKC activation; conditions: 20 μM, 60 min
T3 construct: endogenous in cells; host or cells: HL-60
Method: as §2

PKC isozyme ε = target: T4, PKC isozyme ε (Homo sapiens, UniProt Q02156); assay: as above; format: cell-based; design: key: +++: strong inhibition of PKC activation; −: no inhibition of PKC activation; conditions: 20 μM, 60 min
T4 construct: endogenous in cells; host or cells: HL-60
T4 sequence (Q02156 1-737): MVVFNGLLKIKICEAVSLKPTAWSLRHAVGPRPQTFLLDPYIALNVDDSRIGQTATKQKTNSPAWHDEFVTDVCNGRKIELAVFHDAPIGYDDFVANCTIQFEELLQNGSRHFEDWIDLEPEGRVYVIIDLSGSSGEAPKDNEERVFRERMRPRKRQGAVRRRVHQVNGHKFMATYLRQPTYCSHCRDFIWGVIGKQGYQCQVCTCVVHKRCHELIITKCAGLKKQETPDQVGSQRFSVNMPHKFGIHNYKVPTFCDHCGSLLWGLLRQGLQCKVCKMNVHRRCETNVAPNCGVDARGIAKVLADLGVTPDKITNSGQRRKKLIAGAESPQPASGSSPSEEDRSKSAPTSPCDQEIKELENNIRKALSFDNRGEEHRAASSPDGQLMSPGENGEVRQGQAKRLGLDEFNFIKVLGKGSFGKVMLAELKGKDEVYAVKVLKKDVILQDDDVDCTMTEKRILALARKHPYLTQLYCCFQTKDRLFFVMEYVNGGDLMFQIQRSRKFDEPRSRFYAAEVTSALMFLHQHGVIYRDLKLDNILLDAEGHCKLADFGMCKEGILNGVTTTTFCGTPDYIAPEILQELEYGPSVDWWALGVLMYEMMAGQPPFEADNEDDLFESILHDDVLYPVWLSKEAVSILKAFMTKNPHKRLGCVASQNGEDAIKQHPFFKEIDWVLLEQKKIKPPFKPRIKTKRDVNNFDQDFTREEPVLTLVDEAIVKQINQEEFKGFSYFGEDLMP
Method: as §2

T2 sequence (P05771 1-673 isoform P05771-2): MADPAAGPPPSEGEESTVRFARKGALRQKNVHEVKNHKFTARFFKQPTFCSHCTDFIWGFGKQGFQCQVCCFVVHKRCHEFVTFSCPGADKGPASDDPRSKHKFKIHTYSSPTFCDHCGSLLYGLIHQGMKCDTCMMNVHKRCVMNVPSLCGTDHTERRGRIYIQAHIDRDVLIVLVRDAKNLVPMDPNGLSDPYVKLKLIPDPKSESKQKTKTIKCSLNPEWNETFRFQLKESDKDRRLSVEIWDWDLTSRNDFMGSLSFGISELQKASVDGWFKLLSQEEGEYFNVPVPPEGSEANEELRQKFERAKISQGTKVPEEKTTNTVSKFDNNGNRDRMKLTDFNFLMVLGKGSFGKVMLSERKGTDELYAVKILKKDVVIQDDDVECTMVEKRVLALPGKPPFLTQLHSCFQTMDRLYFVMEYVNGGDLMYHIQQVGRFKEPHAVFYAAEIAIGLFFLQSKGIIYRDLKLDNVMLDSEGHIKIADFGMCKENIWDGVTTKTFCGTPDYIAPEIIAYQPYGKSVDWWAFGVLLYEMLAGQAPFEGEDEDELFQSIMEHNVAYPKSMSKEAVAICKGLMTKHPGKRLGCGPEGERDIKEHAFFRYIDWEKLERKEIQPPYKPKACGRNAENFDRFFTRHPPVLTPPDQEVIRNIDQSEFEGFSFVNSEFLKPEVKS
T3 sequence (Q05655 whole entry): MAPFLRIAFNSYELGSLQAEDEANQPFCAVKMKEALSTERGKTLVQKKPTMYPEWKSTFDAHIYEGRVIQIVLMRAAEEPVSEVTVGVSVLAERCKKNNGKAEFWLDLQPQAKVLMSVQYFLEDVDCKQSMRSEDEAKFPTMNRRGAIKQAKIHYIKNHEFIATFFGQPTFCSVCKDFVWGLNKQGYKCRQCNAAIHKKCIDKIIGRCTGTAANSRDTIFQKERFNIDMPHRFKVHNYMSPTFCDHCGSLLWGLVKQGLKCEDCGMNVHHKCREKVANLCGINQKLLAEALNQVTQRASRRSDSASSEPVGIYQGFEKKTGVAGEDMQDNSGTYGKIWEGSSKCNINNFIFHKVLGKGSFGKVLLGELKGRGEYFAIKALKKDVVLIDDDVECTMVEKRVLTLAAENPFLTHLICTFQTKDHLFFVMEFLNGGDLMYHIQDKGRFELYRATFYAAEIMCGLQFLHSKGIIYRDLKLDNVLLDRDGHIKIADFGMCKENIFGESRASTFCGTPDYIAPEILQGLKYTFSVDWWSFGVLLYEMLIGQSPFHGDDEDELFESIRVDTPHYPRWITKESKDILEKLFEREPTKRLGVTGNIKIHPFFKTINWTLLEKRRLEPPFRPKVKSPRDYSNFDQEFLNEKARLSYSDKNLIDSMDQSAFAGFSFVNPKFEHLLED

Compound: CCCCC/C=C\C/C=C\C/C=C\C/C=C\CCCC(=O)NC(CC(=O)O)C(=O)O (centres unmarked) [PT2]
% inhibition of pain response, Phase I (0-5 mins) ([1]; 30 mg/kg ip): 0% | % inhibition of pain response, Phase II (15-20 mins) ([1]; 30 mg/kg ip): 41% | % inhibition of pain response, Phase I (0-5 mins) ([1]; 100 mg/kg ip): 30% | % inhibition of pain response, Phase II (15-20 mins) ([1]; 100 mg/kg ip): 97% | Pain reduction in formalin test ([1]; intraperitoneal, 30 min before pain stimulus): reduced pain; also recorded: acts similarly to aspirin in having its major effect on the later phase of the pain response | Pain reduction in PQ writhing test [2]: reduced pain | Stimulation of the neutrophil respiratory burst (neutrophil NADPH oxidase): lacks the ability to stimulate the neutrophil respiratory burst

Compound: β-oxa-23:0 [MP1]
Biological activity in in vitro assays [3]: biologically inactive

Compound: CC/C=C\C/C=C\C/C=C\C/C=C\C/C=C\C/C=C\CCC(=O)O [22:6n-3, docosahexaenoic acid, reference compound]
Inhibition of TNF-α-enhanced neutrophil adhesion to HUVEC (HUVEC): no significant effect | inhibition at 20 µM (IκBα): < 50%

Inhibition of PKC activation, isozyme α (PKC isozyme α): − | Inhibition of PKC activation, isozyme β2 (PKC isozyme β2): +++
Compound: CCCCC/C=C\C/C=C\C/C=C\C/C=C\CCCC(CCC(=O)O)(CCC(=O)O)[N+](=O)[O-] [Lx9]
Killing of cancer cells (cancer cells): strong in killing cancer cells

Compound: CCCCC/C=C\C/C=C\C/C=C\C/C=C\CCCC(=O)O [arachidonic acid, reference compound]
Stimulation of the neutrophil respiratory burst (neutrophil NADPH oxidase): able to elicit a strong respiratory burst | Inhibition of TNF-α-enhanced neutrophil adhesion to HUVEC (HUVEC): no significant effect | Suppression of TNF-α-induced E-selectin expression on HUVEC (E-selectin): no significant effect | Suppression of TNF-α-induced ICAM-1 expression on HUVEC (ICAM-1): no significant effect | Suppression of TNF-α-induced VCAM-1 expression on HUVEC (VCAM-1): no significant effect

Inhibition of PKC activation, isozyme α (PKC isozyme α): +++ | Inhibition of PKC activation, isozyme β2 (PKC isozyme β2): +++ | Inhibition of PKC activation, isozyme δ (PKC isozyme δ): +++ | Inhibition of PKC activation, isozyme ε (PKC isozyme ε): +++
Compound: CCCCCCCCCCCCCCCCCC(CCC(=O)O)(CCC(=O)O)[N+](=O)[O-] [Lx8]
Killing of cancer cells (cancer cells): kills cells very poorly
